Data: a melting point compilation (Tetko et al.)

Row | SMILES | melting point
1 | CN(C)S(=O)(=O)c1ccc(NC(=O)CCl)cc1 | 115 to 117 °C
2 | CN(c1ccccc1)c1ccccc1C(=O)O | 105 to 107 °C
3 | COC(=O)c1cc(S(=O)(=O)Cl)c(C(=O)OC)s1 | 129 to 131 °C
4 | Cc1ccc(C(=O)c2c(N)sc3c2CCC3)c(C)c1 | 163 to 165 °C
5 | NCCNS(=O)(=O)Cc1ccccc1 | 88 to 90 °C
6 | N#Cc1ccc(N2CCOCC2)nc1 | 123 to 125 °C
7 | Cc1cc(S)nc(C(C)C)n1 | 160 to 164 °C
8 | CC(C)(C)C(N)c1nc(-c2nnc[nH]2)no1 (stereo not given) | 169 to 171 °C
9 | CC(Cl)C(=O)Nc1ccc(Cl)cc1 (stereo not given) | 100 to 102 °C
10 | NC(=O)c1cn[nH]c1N | 184 to 186 °C
11 | Cc1ccc(-c2nc(C)c(C(C)N)s2)cc1 (stereo not given) | 57 to 59 °C
12 | Clc1ccc2oc(C3CCNCC3)nc2c1 | 86 to 88 °C
13 | COc1ccc(Nc2ccccc2)cc1 | 104 to 106 °C
14 | Cc1cccc(OC(C)C(=O)NN)c1C (stereo not given) | 140 to 144 °C
15 | Cn1cnnc1CN | 32 to 34 °C
16 | CS(=O)(=O)C(Br)C(=O)c1ccccc1 (stereo not given) | 90 to 92 °C
17 | CN(CC(N)=S)C(=O)OC(C)(C)C | 149 to 151 °C
18 | O=C(O)C1CC1(Cl)Cl (stereo not given) | 74 to 76 °C
19 | CC(C)(C)C(=O)Nc1nccnc1C(=O)O | 96 to 98 °C
20 | O=C(Nc1cccc(I)c1)C(F)(F)F | 129 to 131 °C
21 | CS(=O)(=O)C1(C(=O)O)CCCC1 | 117 to 119 °C
22 | O=C(O)C=Cc1ccc2ccccc2n1 | 169 to 171 °C
23 | O=C(O)c1cccc(S(=O)(=O)N2CCc3sccc3C2)c1 | 207 to 209 °C
24 | NC(=O)Cc1ccc(Br)cc1 | 194 to 196 °C
25 | O=C(O)c1csc(S(=O)(=O)N2CCc3ccccc3C2)c1 | 232 to 234 °C
26 | c1ccc(Nc2ncccn2)cc1 | 107 to 109 °C
27 | O=C(O)C1CCN(S(=O)(=O)c2ccc3c(c2)CCCC3)CC1 | 181 to 183 °C

Row | SMILES | melting point
28 | Nc1ccccc1C(=O)NCc1ccco1 | 76 to 78 °C
29 | COCCOc1ccc(/C(C)=N\O)cc1OC | 124 to 126 °C
30 | Nc1nnc2n1CCCC2 | 270 to 272 °C
31 | NC(=O)NC1CCCC1 | 192 to 194 °C
32 | COc1ccc(-c2ccc(C#N)cc2)cc1 | 102 to 104 °C
33 | O=C1CCCc2sc(Br)cc21 | 76 to 78 °C
34 | Nc1ccc(OCc2cccc(C(F)(F)F)c2)cc1 | 67 to 69 °C
35 | O=C(O)C1CC(=O)N(CCc2ccccc2)C1 (stereo not given) | 188 to 190 °C
36 | O=C1NC(=O)C2(CCC2)N1 | 222 to 224 °C
37 | O=C(O)c1occc1COc1ccccc1 | 129 to 131 °C
38 | N#CCCN1C(=O)NC2(CCCC2)C1=O | 104 to 106 °C
39 | NC(=O)CCOc1cccc(F)c1 | 94 to 96 °C
40 | O=C(C1CCNCC1)N1CCc2ccccc21 | 67 to 69 °C
41 | NS(=O)(=O)C1CCCOC1 (stereo not given) | 96 to 98 °C
42 | Cc1nc2sccn2c1C=O | 94 to 96 °C
43 | NC(=O)c1ccc(CNc2cccc(F)c2)cc1 | 155 to 157 °C
44 | O=C(O)C1CCN(C2=NS(=O)(=O)c3ccccc32)CC1 | 279 to 281 °C
45 | CNc1nc(C)cc(C)c1C#N | 147 to 149 °C
46 | CC(C)n1ncc2cc(N)cnc21 | 85 to 87 °C
47 | Cc1n[nH]c(C)c1CCC(=O)O | 169 to 171 °C
48 | O=C(O)CN(Cc1ccco1)c1cccc(Cl)c1 | 115 to 117 °C
49 | CCOC(=O)c1sc(N)c(C#N)c1CBr | 206 to 208 °C
50 | CSc1ccc(CC(=O)O)cc1 | 97 to 98 °C
51 | CN(CC(=O)O)C(=O)c1ccsc1 | 56 to 57 °C
52 | CCNC(=O)c1ccc(N)cc1 | 73 to 75 °C
53 | Nc1nc(-c2ccccc2)cn1/N=C/c1ccccc1 | 202 to 204 °C
54 | O=C(O)C1(c2ccccc2Cl)CCOCC1 | 201 to 203 °C

Row | SMILES | melting point
55 | CCCCCS(N)(=O)=O | 62 to 64 °C
56 | Cn1c(S)nnc1C1CCC1 | 124 to 126 °C
57 | O=C(c1cn[nH]c1)N1CCN(c2ccccn2)CC1 | 194 to 196 °C
58 | O=C(O)Cc1ccco1 | 64 to 69 °C
59 | CC(C)NO | 73 to 75 °C
60 | Nc1cccc(Oc2ccnc3ccccc23)c1 | 114 to 116 °C
61 | NCc1ccc(CN2CCC(O)CC2)cc1 | 128 to 130 °C
62 | CC(C)(C)OC(=O)N1CCN(c2nc(N)ns2)CC1 | 196 to 198 °C
63 | N#Cc1cccc(-n2cccn2)n1 | 116 to 118 °C
64 | O=Cc1cn2cccc(F)c2n1 | 163 to 165 °C
65 | Nc1ccc(CCN2CCCCC2)cc1 | 54 to 56 °C
66 | O=C(c1cc(Cl)c[nH]1)C(Cl)(Cl)Cl | 128 to 130 °C
67 | CC1CCCC(C)N1S(=O)(=O)c1ccc(N)cc1 (stereo not given) | 215 to 217 °C
68 | CCOCc1nnc(N)o1 | 118 to 120 °C
69 | O=C(O)CSc1ccccc1F | 80 to 82 °C
70 | Cc1ccc(-n2c(S)nnc2-c2ccncc2)cc1C | 260 to 262 °C
71 | ClCc1cnc(-c2ccccc2)s1 | 57 to 59 °C
72 | Cc1csc(=O)n1CC(=O)O | 193 to 195 °C
73 | Cn1c(C2CC2)nc2cnccc21 | 100 to 102 °C
74 | CC(C)(C)C1CCC(c2cc(N)[nH]n2)CC1 (stereo not given) | 132 to 134 °C
75 | Cc1cc(C)n2nc(CCCO)nc2n1 | 89 to 91 °C
76 | CC(C)(C#N)NC(=O)c1ccccc1 | 166 to 168 °C
77 | CC1C=CC(C(=O)O)C2C(=O)N(c3ccccc3)C(=O)C12 (stereo not given) | 219 to 221 °C
78 | Cc1cccc(NC(=O)N2CCNCC2)c1 | 109 to 111 °C
79 | Nc1nc(Cl)ccc1F | 84 to 86 °C
80 | O=C(c1[nH]nc2ccccc12)N1CCNCC1 | 179 to 181 °C

Further lines, results first:

Row | melting point | SMILES
81 | 147 to 149 °C | CS(=O)(=O)c1cccc(Cl)c1C(=O)O
82 | 97 to 99 °C | Nc1ncc(Cc2ccc(F)c(F)c2)s1
83 | 129 to 131 °C | Cc1ccc(C)c(-n2nnnc2S)c1
84 | 124 to 126 °C | C=CC(=O)Nc1ccc(OC)cc1[N+](=O)[O-]
85 | 288 to 290 °C | O=C(Nc1ccc(O)c(C(=O)O)c1)c1cc(Cl)cc(Cl)c1
86 | 239 to 241 °C | CCOC(=O)c1nnc2ccccc2c1N
87 | 109 to 111 °C | Brc1ccc(-c2ncno2)cc1
88 | 206 to 208 °C | O=C(O)c1ccn(-c2c(Cl)cc([N+](=O)[O-])cc2Cl)n1
89 | 73 to 75 °C | Nc1ccc(OCCO)cc1C(F)(F)F
90 | 145 to 154 °C | Nc1ccc(S(N)(=O)=O)cc1N
91 | 274 to 276 °C | Cc1nc2c(cnn2C)c(=O)[nH]1
92 | 143 to 145 °C | N#Cc1ccc(Cl)cc1NC1CCOCC1
93 | 229 to 231 °C | O=c1[nH]c2cc([N+](=O)[O-])ccc2o1
94 | 129 to 131 °C | Nc1cc(-c2ccco2)nn1-c1ccc(Cl)cc1
95 | 247 to 249 °C | NS(=O)(=O)c1ccc(N2CCCC2=O)cc1
96 | 234 to 236 °C | O=C(O)CCNC(=O)c1ccc2cn[nH]c2c1
97 | 191 to 193 °C | O=C(O)Cc1coc(-c2ccc(Cl)cc2)n1
98 | 222 to 224 °C | NNC(=O)c1cc(Br)ccc1O
99 | 159 to 161 °C | O=C(O)c1oc2ccccc2c1CSc1nnc[nH]1
100 | 227 to 229 °C | O=C(O)CCc1cc2ccccc2[nH]c1=O
101 | 125 to 127 °C | Cc1cc(Oc2cnccn2)ccc1N
102 | 136 to 138 °C | COC(=O)c1ccc(-n2cc(C)cn2)c(N)c1

Row | melting point | SMILES
103 | 49 to 51 °C | O=Cc1cccc(Br)c1OC(F)F
104 | 115 to 117 °C | Nc1ccc(Cl)c(C(=O)Nc2ccccc2)c1
105 | 171 to 173 °C | O=C(O)c1ncoc1-c1ccco1
106 | 69 to 71 °C | Cc1cc(N)nn1-c1cccc(F)c1
107 | 156 to 158 °C | CC(C)c1ccc(S(=O)(=O)Cc2ccoc2C(=O)O)cc1
108 | 159 to 161 °C | CCCOc1nc(C(=O)O)cc2ccccc12
109 | 113 to 115 °C | CC1=C(C)C(=O)NC1=O
110 | 256 to 258 °C | O=C1COc2ncc(Br)cc2N1
111 | 149 to 151 °C | Cc1oc2nc[nH]c(=O)c2c1C(=O)O
112 | 142 to 144 °C | N#Cc1cc(S(N)(=O)=O)ccc1F
113 | 121 to 123 °C | O=Cc1cccc2cn[nH]c12
114 | 119 to 121 °C | COc1ccc(Nc2n[nH]c(N)c2C#N)cc1
115 | 78 to 80 °C | Cc1cc(C=O)c(C)n1-c1cccc(F)c1
116 | 138 to 140 °C | CC(Cl)C(=O)Nc1ccc([N+](=O)[O-])cc1 (stereo not given)
117 | 93 to 95 °C | N#Cc1ccc(Cl)cc1NCc1ccccc1
118 | 121 to 123 °C | O=C(O)C1CC(=O)N(c2ccc(F)cc2)C1 (stereo not given)
119 | 52 to 54 °C | O=[N+]([O-])c1cc(S(=O)(=O)Cl)ccc1O
120 | 129 to 131 °C | CCCN1C(=O)C(=O)c2cc(Br)ccc21
121 | 174 to 176 °C | CC1Cc2cc(S(N)(=O)=O)cc(Cl)c2O1 (stereo not given)
122 | 269 to 271 °C | Cc1c(Cl)ccc2ccc(=O)[nH]c12
123 | 157 to 159 °C | Nc1ccc2[nH]nc(N)c2c1
124 | 211 to 213 °C | O=C(O)c1ccc(Cl)c(NS(=O)(=O)c2ccc(F)cc2)c1

Row | melting point | SMILES
125 | 310 to 312 °C | Nc1cccc(C(=O)O)n1
126 | 134 to 136 °C | COc1cc(Br)ccc1C(N)=O
127 | 136 to 138 °C | Cn1ccnc1Sc1ccc(F)cc1N
128 | 107 to 109 °C | CS(=O)(=O)Nc1ccc(CCl)cc1
129 | 118 to 120 °C | O=C(O)CCc1ccc(-c2ccccc2)o1
130 | 188 to 190 °C | NC(=O)c1ccc(S(=O)(=O)Cl)cc1
131 | 189 to 191 °C | CC(C)CSc1ccc([N+](=O)[O-])cc1C(=O)O
132 | 64 to 66 °C | O=S(=O)(Cl)c1ccc(OCC2CCCCO2)cc1 (stereo not given)
133 | 200 to 203 °C | CN1Cc2ccccc2NC1=O
134 | 104 to 106 °C | CCN1C(=O)C(=O)c2cc(C)ccc21
135 | 46 to 48 °C | COc1ccc(CN2CCCC2)cc1N
136 | 170 to 172 °C | O=C(c1ccc(O)cc1)c1ccc(F)cc1
137 | 57 to 59 °C | CN(C)S(=O)(=O)c1ccccc1C#N
138 | 208 to 210 °C | CCc1cc(=O)[nH]c(-c2ccc(Cl)nc2)n1
139 | 271 to 272 °C | O=c1cnc2ccccc2[nH]1
140 | 169 to 171 °C | O=Cc1c[nH]c2cccc(F)c12
141 | 130 to 138 °C | O=[N+]([O-])c1ccc(Cl)c2cccnc12
142 | 166 to 168 °C | O=C(O)c1oc2ccccc2c1CSc1cccs1
143 | 225 to 227 °C | O=C(O)c1ccccc1NS(=O)(=O)c1ccc2[nH]c(=O)[nH]c2c1
144 | 179 to 181 °C | COc1ccc2ncc(=O)[nH]c2c1
145 | 58 to 60 °C | CC(C)(C)c1cc([N+](=O)[O-])c(O)c(C(C)(C)C)c1
